Holding throughout (assay type): cell-based, Sprague-Dawley rats
Assay [1] relates to CA1 PCs in rat hippocampal slices. The experiment in a line: Ex vivo eCB / S-eCB mobilization protocol: eIPSC amplitudes by whole-cell voltage-clamp. The text has this: To test the acute effect of AβO on hippocampal S-eCB mobilization, hippocampal slices from Sprague-Dawley rats (SD, 2 to 3 weeks old, DaeHan Biolink, Co., Ltd., Korea) were used. Male and female rats were used in all in vitro experiments. To test the chronic effect of AβO on hippocampus-dependent memory impairments caused by amyloidosis, the 5XFAD mouse model (6 to 7 months old, #34840-JAX, Jackson Laboratory, USA), which is a mouse model of Alzheimer's disease that mimics AβO depositions, was used. C57BL/6 mice (6 to 7 months old, KOATECH, Korea) were used as wild type (WT) control mice for 5XFAD mice. Male 5XFAD and C57BL/6 mice were used for all in vivo behavioral experiments. The 5XFAD mouse genotypes were identified by polymerase chain reaction (PCR) using DNA extracted from the tails of the mice. All animal-related procedures followed the guidelines of the Institutional Animal Care and Use Committee of Korea University (guidelines for SD rats: KUIACUC-2017-103, guidelines for C57BL/6 and 5XFAD mice: KUIACUC-2019-0068).
(§1) Soluble AβO was prepared according to a previous study (BMC Biol. 2020; 18(1):7). Specifically, Aβ1-42 (Aβ) and a scrambled form of Aβ as a control peptide were purchased in powder form. Aβ and scrambled Aβ were dissolved for monomerization in 1,1,1,3,3,3-hexafluoro-2-propanol (HFIP, Sigma Aldrich, USA) at a final concentration of 1 mM, and the solution was incubated for 90 minutes. After the HFIP was evaporated, the remaining thin and clear film of Aβ or scrambled Aβ was dissolved in dimethyl sulfoxide (DMSO, Sigma Aldrich, USA) to prepare 5 mM Aβ or scrambled Aβ stocks, which were aliquoted and frozen at −20° C. Aβ or scrambled Aβ stocks were thawed and diluted to 100 μM in artificial cerebrospinal fluid (ACSF). Thereafter, Aβ or scrambled Aβ stocks were incubated for oligomerization for 18 hours. The final AβO or scrambled AβO stock solution was diluted to a final concentration of 200 nM in 31.2 ml of ACSF, and rat hippocampal slices were treated with the stock solution for 20 minutes in a recovery chamber before measurement of brain signals. In control experiments for normal brain conditions using a vehicle, rat hippocampal slices were treated with 0.004% DMSO in ACSF.
(§2) The brains of SD rats were isolated following decapitation under isoflurane-induced anesthesia and transferred into ice-cold ACSF containing 126 mM NaCl, […], 1.25 mM NaH2PO4, 2 mM MgSO4, 2 mM CaCl2), 25 mM NaHCO3, and 10 mM glucose (pH 7.2 to 7.4). The ACSF was continuously oxygenated with 95% O2/5% CO2. Horizontal hippocampal slices (350 μm thickness) were obtained using a vibratome (VT1000S, Leica Biosystems, Germany) and immediately incubated at room temperature in a submerged chamber perfused with oxygenated ACSF for at least 1 hour.
To quantify eCB mobilization, the changes in eCB mobilization-induced Schaffer collateral (SC) nerve bundle stimulation-evoked inhibitory postsynaptic current (eIPSC) amplitudes were measured in CA1 PCs through the whole-cell voltage-clamp technique. The whole-cell voltage-clamp technique in CA1 PCs was performed using a MultiClamp 700B amplifier (Molecular Devices, USA) under an infrared differential interference contrast video microscope (BW51W, Olympus, Japan), using a borosilicate electrode (tip resistance: 4 to 8 MΩ) that was filled with an intracellular solution containing 145 mM CsCl, 10 mM HEPES, 2 mM EGTA, 4 mM QX-314, 4 mM Mg-ATP, 0.4 mM […], pH 7.2 to 7.3, and 270 to 280 mOsm/L. To record eIPSCs in the CA1 PCs, a stimulating electrode (A-M Systems, USA) was placed in a stratum radiatum to stimulate the SC pathway that carries CA3 PC axons. Electrical stimulation pulses of 200 to 400 μA amplitudes (20 to 40 μs) were generated using a constant current stimulator (model DS3, Digitimer Ltd., UK). eIPSCs were recorded in CA PCs every 1 second while maintaining the membrane potential at −70 mV.

Assay [2] relates to hippocampal CA3-CA1 excitatory synapses. Kind of assay: S-eCB mobilization induced spike timing-dependent potentiation (tLTP) protocol, EPSP slope. On the procedure:
as §1, §2

The test system of assay [3] is PLCβ1. Kind of assay: Western blot of PLCβ1 in rat hippocampal slices. As to conditions: AβO-treated rat hippocampal slices. How it is done: as §1, with “The final AβO or scrambled AβO stock solution was diluted to a final concentration of 200 nM in 31.2 ml of ACSF, and rat hippocampal slices were treated with the stock solution for 20 minutes in a recovery chamber before measurement of brain signals. In control experiments for normal brain conditions using a vehicle, rat hippocampal slices were treated with 0.004% DMSO in ACSF.” left out
Hippocampal PLCβ1 of SD rats and C57BL/6 or 5XFAD mice were prepared from homogenized hippocampi dissolved in 200 μL of RIPA buffer (Bio-Rad, USA), and were resolved on non-reducing 10% tris-glycine-sodium dodecyl sulfate-polyacrylamide gel electrophoresis (SDS-PAGE) gels (Bio-Rad, USA) using 4×Laemmli sample buffers (Bio-Rad, USA). […] Immunoreactivity was confirmed with enhanced chemiluminescence (Bio-Rad, USA) using a Fluorchem E system (ProteinSimple, USA) and analyzed with ImageJ software. […]

[4] abbreviates: DMSO-treated rat hippocampal slices, D-AP5 50 μM or AM251 3 μM.

For the compound `Cc1c(C(=O)NN2CCCCC2)nn(-c2ccc(Cl)cc2Cl)c1-c1ccc(I)cc1` [AM251], in assay [1] (AM251 3 μM, DHPG puff alone), the “effect on the DHPG-induced decrease of eIPSC amplitude (eCB mobilization)” value is “blocked the decrease in amplitude”.
For `N[C@H](CCCP(=O)(O)O)C(=O)O` [D-AP5, D-2-amino-5-phosphonovaleric acid], in assay [2] (setting [4]), the “mGluR5-mediated LTD in the presence of antagonist” value was “induced in both the test and control pathways”; the “tLTP induction (EPSP slope, test pathway), effect of antagonist” value is “completely blocked”.
For the compound `N[C@H](C(=O)O)c1cc(O)cc(O)c1` [DHPG, (S)-3,5-dihydroxyphenylglycine], the “first ten eIPSC amplitudes as % of the mean eIPSC amplitude measured at the baseline before the DHPG puff” value in assay [1] (DHPG (50 μM) puff alone, rat hippocampal slices, mean±SEM) was determined as 79±7%. For the same compound, in assay [1] (DHPG puff paired with 60-s-long postsynaptic neural spike trains at 1 Hz, DMSO-treated rat hippocampal slices, mean±SEM), the “eIPSC amplitude as % of the baseline eIPSC amplitude (S-eCB mobilization)” value was determined as 62±4%.
`Cc1cc(C(=O)O)ccc1[C@H](N)C(=O)O` [LY367385]: the “eIPSC amplitudes following 60-s-long DHPG puff during 1 Hz neural spikes in the presence of mGluR1 antagonist” value in assay [1] (LY367385 100 μM, DMSO-treated rat hippocampal slices) was “decreased”.
On to `Cc1cccc(C#Cc2ccccc2)n1` [MPEP, 2-methyl-6-(phenylethynyl) pyridine], for which the “eIPSC amplitudes following DHPG puff during 1 Hz neural spikes in the presence of mGluR5 antagonist” value in assay [1] (MPEP 10 μM, DMSO-treated, AβO-treated or scrambled AβO-treated rat hippocampal slices) is “did not significantly change”.
With `COc1ccc2c(c1)CC[C@@H]1[C@@H]2CC[C@]2(C)[C@@H](NCCCCCCN3C(=O)C=CC3=O)CC[C@@H]12` [U73122], the “synergistic enhancement in the suppression of eIPSC amplitudes (S-eCB mobilization), effect of PLCβ blocker” value in assay [1] (U73122 5 μM, DMSO-treated rat hippocampal slices, similar in AβO- and scrambled AβO-treated slices) is given as “completely blocked”.
Turning to “AβO: soluble amyloid beta oligomer prepared from Aβ1-42 peptide powder (Bachem)”, the “eIPSC amplitudes / suppression of eIPSC amplitudes following DHPG puff during 1 Hz neural spikes in peptide-treated slices” value in assay [1] (slices treated with 200 nM peptide for 20 minutes, in the presence of LY367385 100 μM) was “completely blocked”. The “protein expression levels of PLCβ1 compared to DMSO-treated slices” value in assay [3] is reported as “remarkably decreased”. Also, in assay [2] (AβO-treated compared to DMSO-treated rat hippocampal slices), the “mGluR-LTD in the control pathway” value is “not affected”. In assay [2] (AβO-treated rat hippocampal slices), the “induction of tLTP in the test pathway” value is given as “completely blocked”.
